Patent publication US20220354858A1, “METHOD FOR TREATING MALIGNANT TUMOR” (TAIHO PHARMACEUTICAL CO., LTD., priority 2019, published 2022)
Values joined by “and” are separate entries in the source; they are usually repeats but may differ in a detail not shown here. Equal entries are not always repeated. Where two headings read alike, the source gives them in different places.

What was measured:
[1] = tested on: Human ovarian cancer cell line OVCAR-3; assay: Administration schedule study in nude mouse model subcutaneously transplanted with OVCAR-3; format: in vivo; settings: OVCAR-3 xenograft, FIG. 1
Procedure: Human ovarian cancer cell line OVCAR-3 (American Type Culture Collection (ATCC)) that had been subcutaneously subcultured in mice was cut to about 2 mm squares and subcutaneously transplanted into 5-week-old […] BALB/cAJcl-nu/nu mice (CLEA Japan, Inc.) using a transplantation needle.
The grouping day was defined as Day 1.
The tumor volume (TV) was calculated using the following formula.
TV=(major axis×minor axis×minor axis)×½
Requisite amounts of Compound 1 were weighed, and each was individually suspended in a 0.5% (w/v) hydroxypropyl methylcellulose (HPMC) aqueous solution to prepare administration liquids having appropriate concentrations. For the control group, a 0.5% (w/v) HPMC aqueous solution was used as an administration liquid.
The administration amount was 10 mL/kg body weight, and each administration liquid was individually injected into the stomach of the mice with a feeding needle.
Twice a week, the major axis and the minor axis of each tumor were measured from the skin with an electronic caliper, and the following items were further calculated. These were used as indexes to confirm the presence or absence of an antitumor effect.
Tumor volume (TVn)=(major axis×minor axis×minor axis)×½ […]
On the same days as the tumor volume measurement, the body weight (BW) of the mice was measured with an electronic balance, and the body weight change (BWC) was further calculated. […]

[2] = Dose escalation (3+3 design) to determine recommend dose and administration schedule in humans; format: in vivo, human; settings: oral once a day, patients with advanced solid cancers
Procedure: This test was performed to determine the recommend dose and administration schedule of Compound 1 and investigate the safety profile of Compound 1 for patients with advanced solid cancers for which standard treatment options are not available.
In this Example, first, the recommend doses for the schedule of administration for 7 consecutive days and the schedule of 4-administration with 3-withdrawal were determined. In the schedule of administration of Compound 1 for 7 consecutive days, Compound 1 was orally administered consecutively once a day for three courses for a total duration of 21 days, with one course taken as 7 days. In 4-administration with 3-withdrawal, Compound 1 was orally administered once a day on day 1 to day 4, day 8 to day 11, and day 15 to day 18 of three courses for a total duration of 21 days, with one course taken as 7 days.
In the schedule of administration for 7 consecutive days, the administration amount taken at one time started at 4 mg/body/day. […]
In the present invention, the 3+3 design was performed in the following manner. […] Whether the level proceeds is determined by the investigator and the sponsor based on comprehensive considerations of not only the information on DLTs, but also all related toxicities regardless of whether they are DLTs, and drugs used in combination/combination therapy from a clinical perspective. […]

[3] = Pharmacokinetics of Compound 1 in humans; format: in vivo, human; settings: for Blood concentration remaining before administration: 24 mg/body/day, 4-administration with 3-withdrawal
Procedure: The pharmacokinetics of the recommend doses of Compound 1 in administration for 7 consecutive days and 4-administration with 3-withdrawal were measured in patients with advanced solid cancers for which standard treatment options were not available.
In the administration for 7 consecutive days, Compound 1 was orally administered once a day at a dose of 16 mg/body/day for three courses for a total duration of 21 days, with one course taken as 7 days. Blood samples were taken over time on day 1 and day 21, which was the last administration day of the three courses, to measure the pharmacokinetics.
In the 4-administration with 3-withdrawal, Compound 1 was orally administered once a day at a dose of 24 mg/body/day for three courses for a total duration of 21 days, with one course taken as 7 days. Blood samples were taken over time on day 1 and day 18, which was the last administration day of the three courses, to measure the pharmacokinetics. Blood samples were also taken immediately before administration on day 3, day 4, and day 8.

advanced solid cancers = assay: Optimal dosage regimen study in humans: safety (non-prescribed withdrawal) and efficacy (RECIST) profiles; format: in vivo, human; settings: for Non-prescribed withdrawal: N = 6
Procedure: With regard to Example 3, the optimal dosage regimen of Compound 1 was studied. The safety profiles and efficacy profiles when the recommend doses were administered in the schedule of administration for 7 consecutive days and the schedule of 4-administration with 3-withdrawal were compared in patients with advanced solid cancers for which standard treatment options were not available.
For the safety profiles, non-prescribed withdrawal periods were compared. The non-prescribed withdrawal period is a comprehensive index of safety profiles.
In this Example, dose modification criteria in the case of the occurrence of a toxicity for which a causal relationship to the drug cannot be denied were shown. Dose modification criteria for non-hematologic toxicities, dose modification criteria for hematologic toxicities, and dose modification criteria for other toxicities were set. When any of these criteria was met, a prescribed day to perform drug administration was changed to a day on which the drug is not administered, i.e., a non-prescribed withdrawal period.
The dose modification criteria for non-hematologic toxicities for which a causal relationship to the drug cannot be denied were set as follows.
With regard to fasting blood glucose, if symptomatic grade 4 hyperglycemia or grade 3 or higher hyperglycemia for more than 7 days develops, the administration is discontinued (non-prescribed withdrawal). If the condition recovers to grade 1 or grade 0, the administration can be resumed. When the administration is resumed, the administration amount is reduced by one level from the original administration amount. However, for adverse events (e.g., fatigue and skin dryness) that are judged to be less likely to become serious or worsen to life-threatening events, the administration of the drug can be continued at the same administration amount without dose reduction or administration discontinuation, regardless of the grades of the events.
In the case of DLTs or grade 3 or higher non-hematologic toxicities as other toxicities, the administration is discontinued (non-prescribed withdrawal). If the condition recovers to grade 1 or less or to the baseline, the administration can be resumed. As grade 3 or higher non-hematologic toxicities, grade 3 nausea and/or vomiting that could be treated by intensive antiemetic therapy, grade 3 diarrhea in which an antidiarrheal was effective, and grade 3 skin toxicity that could be treated by intensive skin treatment with, for example, a topical steroid and/or an oral corticosteroid are excluded. When the administration is resumed, the administration amount is reduced by one level from the original administration amount. However, for adverse events (e.g., fatigue and skin dryness) that are judged to be less likely to become serious or worsen to life-threatening events, the administration of the drug can be continued at the same administration amount without dose reduction or administration discontinuation, regardless of the grades of the events.
The dose modification criteria for hematologic toxicities for which a causal relationship to the drug cannot be denied were set as follows.
If the neutrophil count is less than 500/mm^3, the administration is discontinued (non-prescribed withdrawal). If the neutrophil count recovers to 1500/mm^3 or more, the administration can be resumed. […] In the case of asymptomatic neutropenia lasting more than 7 days or neutropenia with a symptom (neutropenia with an infectious disease or fever), the administration amount is reduced by one level from the original administration amount.
If the platelet count is less than 25000/mm^3, the administration is discontinued (non-prescribed withdrawal). If the platelet count recovers to 75000/mm^3 or more, the administration can be resumed. When the administration is resumed, the administration amount is reduced by one level from the original administration amount. […]

[4] = mice; cited from earlier work
[5] = humans; cited from earlier work
[6] = 4-administration with 3-withdrawal, 24 mg/body/day
[7] = administration for 7 consecutive days, 16 mg/body/day

C[C@]1(O)C[C@@](N)(c2ccc(-c3nc4n(c3-c3ccccc3)COc3ccncc3-4)cc2)C1 [Compound 1, trans-3-amino-1-methyl-3-(4-(3-phenyl-5H-imidazo[1,2-c]pyrido[3,4-e][1,3]oxazin-2-yl)phenyl)cyclobutanol]
Body weight change ([1]; each Compound 1 administration group): without serious weight loss
Antitumor effect (RTV, T/C) ([1]; oral 16 or 24 mg/kg/day 7 consecutive days or 24 mg/kg/day 4-administration with 3-withdrawal, Days 1-21): excellent antitumor effect
Maximum tolerable administration amount (recommend dose) ([2]; 4-administration with 3-withdrawal): 24 mg/body/day
Maximum tolerable administration amount (recommend dose) ([2]; administration for 7 consecutive days): 16 mg/body/day
Accumulation (blood drug concentrations day 21 or day 18 versus day 1) ([3]; 16 mg/body/day 7 consecutive days and 24 mg/body/day 4-administration with 3-withdrawal): has accumulation properties
Blood concentration remaining before administration ([3]; day 3): 25.7 ng/mL
Blood concentration remaining before administration ([3]; day 4): 35.7 ng/mL
Half-life ([3]; human, blood, humans, oral): ~49 h
Non-prescribed withdrawal period (advanced solid cancers; [6]): 2 days and 2.0 days
Non-prescribed withdrawal (advanced solid cancers; [6]): one of six patients and 1/6
RECIST evaluation (advanced solid cancers; 4-administration with 3-withdrawal, 24 mg/body/day, six patients): two of the six patients had stable disease (SD)
RECIST evaluation (advanced solid cancers; [7]): all of the patients had progressive disease (PD)
Non-prescribed withdrawal (advanced solid cancers; [7]): three of six patients and 3/6
Non-prescribed withdrawal period (advanced solid cancers; administration for 7 consecutive days, 16 mg/body/day, average): 3.7 days
Tumor shrinkage effect (waterfall plots), 4-administration with 3-withdrawal versus 7 consecutive days (advanced solid cancers; recommend doses, FIG. 4): superior
Half-life [4]: about 2.3 hours

AZD5363
Half-life [5]: about 6 hours
